The results in this text go back to patent publication US8148531B2 (Chroma Therapeutics Ltd., priority 2005, dated 2012).

Assay [1] deals with T1, Aurora-A (Homo sapiens, UniProt O14965).
T1 sequence (O14965 1-403): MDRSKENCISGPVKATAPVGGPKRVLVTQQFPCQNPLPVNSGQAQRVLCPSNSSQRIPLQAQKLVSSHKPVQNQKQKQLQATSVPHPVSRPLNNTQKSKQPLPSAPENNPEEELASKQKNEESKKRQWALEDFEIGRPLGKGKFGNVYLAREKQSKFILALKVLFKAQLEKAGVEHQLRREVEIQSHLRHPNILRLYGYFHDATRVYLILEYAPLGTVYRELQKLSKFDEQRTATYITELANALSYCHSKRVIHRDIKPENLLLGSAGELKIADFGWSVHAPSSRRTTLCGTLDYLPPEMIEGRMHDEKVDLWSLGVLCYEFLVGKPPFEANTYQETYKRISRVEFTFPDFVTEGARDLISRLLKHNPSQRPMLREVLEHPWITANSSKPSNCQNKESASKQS
In words: Aurora-A enzyme assay (MBP-coated Flashplate, γ-33P-ATP). The class given is biochemical. The note with it: IC50 range class; read-out: Inhibitor Activity vs Aurora-A. On the procedure:
(§1) The ability of compounds to inhibit Aurora-A activity was measured using a simple microplate assay for Aurora-A activity, also suitable for high-throughput screening. In brief, γ-^33P-ATP and Aurora-A were incubated in a myelin basic protein (MBP)-coated Flashplate® to generate a scintillation signal. The plates were formatted to contain the inhibitor, controls, positive control (staurosporin) and blanks. After incubation at 37° C. for 1 hour and a subsequent wash procedure, the plates were read on a TopCount-NXT™.
The 384-well basic Flashplate® and the γ-^33P-ATP were obtained from PerkinElmer Life Sciences, Boston, Mass.
(§2) IC50 values were determined by non-linear regression analysis, after fitting the data point results to the equation for sigmoidal dose response with variable slope (% activity against log concentration of compound), using Graphpad Prism software.
Full experimental procedure for this assay can be found within the following reference: Sun, C Journal of Biomolecular Screening 9(5), 2004, 391.

The target in assay [2] is Aurora-B (Homo sapiens, UniProt Q96GD4). In words: Aurora-B enzyme assay (identical protocol as Aurora-A). It is filed as biochemical. The conditions noted are these: IC50 range class; read-out: Inhibitor Activity vs Aurora-B. On the procedure:
as §1, §2
The Aurora-B enzyme assay follows the identical protocol as Aurora-A.

The subject of assay [3] is U937 cell line. The experiment in a line: Cell inhibition assay (SRB cell viability), U937. It is filed as cell-based. The note with it: Homo sapiens, U-937, IC50 range class, 72 h, read-out: Inhibitor Activity vs U937 cell line. The method, boiled down:
(§3)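 Log-phase cells seeded at 1000 cells/well, grown 24 h, then exposed to compounds (20 uM final) for 72 h. Viability read by sulphorhodamine B staining as % inhibition versus DMSO; IC50 from eight-point sigmoidal variable-slope fit.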

The subject of assay [4] is HCT 116 cell line. The experiment in a line: Cell inhibition assay (SRB cell viability), HCT 116. The class given is cell-based. The conditions noted are these: Homo sapiens, IC50 range class, 72 h, read-out: Inhibitor Activity vs HCT 116 cell line. Put shortly:
as §3

Assay [5] has as its system HUT cell line. In words: Cell inhibition assay (SRB cell viability), HUT. The note with it: IC50 range class, 72 h, read-out: Inhibitor Activity vs HUT cell line. It is filed as cell-based. Put shortly:
as §3

Chain of Aurora-B (Q96GD4 whole entry): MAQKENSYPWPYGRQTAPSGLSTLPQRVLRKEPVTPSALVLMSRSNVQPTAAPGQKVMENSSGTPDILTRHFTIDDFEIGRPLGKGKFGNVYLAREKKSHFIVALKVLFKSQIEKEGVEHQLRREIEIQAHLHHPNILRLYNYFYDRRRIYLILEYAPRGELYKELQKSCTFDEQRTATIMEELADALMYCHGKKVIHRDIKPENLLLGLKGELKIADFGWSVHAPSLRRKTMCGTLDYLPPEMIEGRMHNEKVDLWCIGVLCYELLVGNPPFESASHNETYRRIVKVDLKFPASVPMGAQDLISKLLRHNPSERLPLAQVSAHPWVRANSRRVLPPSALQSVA

On to `COc1cc2c(Oc3ccc(NC(=O)c4ccccc4)cc3)ccnc2cc1OCC[C@H](NC(=O)OC(C)(C)C)C(=O)O` [Example 3], for which the IC50 in assay [1] and in assay [2] was less than 2000 nM each time.

As for `COc1cc2c(Oc3ccc(NC(=O)c4ccccc4)cc3)ccnc2cc1OCC[C@H](N)C(=O)O` [Example 4, (S)-2-Amino-4-[4-(4-benzoylamino-phenoxy)-6-methoxy-quinolin-7-yloxy]-butyric acid], the IC50 in assay [1] and in assay [2] was less than 2000 nM each time.

For the compound `COc1cc2c(Nc3ccc(NC(=O)c4ccccc4)cc3)ccnc2cc1OCC[C@H](N)C(=O)O` [Example 16, (S)-2-Amino-4-[4-(4-benzoylamino-phenylamino)-6-methoxy-quinolin-7-yloxy]-butyric acid], the IC50 in assay [1] was greater than 5000 nM; in assay [2], 2000 to 5000 nM.

In the case of `COc1cc2c(Sc3ccc(NC(=O)c4ccccc4)cc3)ccnc2cc1OCC[C@H](N)C(=O)O` [Example 19, (S)-2-Amino-4-[4-(4-benzoylamino-phenylsulfanyl)-6-methoxy-quinolin-7-yloxy]-butyric acid], the IC50 in assay [1] and in assay [2] was less than 2000 nM each time.

For `COc1cc2c(Sc3ccc(NC(=O)C4CC4)cc3)ccnc2cc1OCC[C@H](N)C(=O)O` [Example 21, (S)-2-Amino-4-{4-[4-(cyclopropanecarbonyl-amino)-phenylsulfanyl]-6-methoxy-quinolin-7-yloxy}-butyric acid], the IC50 in assay [1] and in assay [2] was 2000 to 5000 nM throughout.

As for `COc1cc2c(Nc3cnc(NC(=O)c4ccccc4)nc3)ccnc2cc1OCC[C@H](N)C(=O)O` [Example 26, (S)-2-Amino-4-[4-(2-benzoylamino-pyrimidin-5-ylamino)-6-methoxy-quinolin-7-yloxy]-butyric acid], the IC50 in assay [1] is less than 2000 nM; in assay [2], 2000 to 5000 nM.

For the compound `COc1cc2c(Nc3ccc(NC(=O)c4ccccc4)cc3)c(C#N)cnc2cc1OCC[C@H](N)C(=O)OC1CCCC1` [Example 27], the IC50 in assay [1] was greater than 5000 nM; in assay [3], 1000 to 5000 nM; in assay [4], 1000 to 5000 nM; in assay [5], less than 1000 nM.

Turning to `COc1cc2c(Nc3ccc(NC(=O)c4ccccc4)cc3)c(C#N)cnc2cc1OCC[C@H](NC(=O)OC(C)(C)C)C(=O)OC1CCCC1` [Example 28], the IC50 is greater than 5000 nM in assay [1], less than 1000 nM in assay [3], greater than 5000 nM in assay [4] and 1000 to 5000 nM in assay [5].

As to `COc1cc2c(Oc3ccc(NC(=O)c4ccccc4)cc3)ncnc2cc1OCC[C@H](N)C(=O)O` [Example 30, (S)-2-Amino-4-[4-(4-benzoylamino-phenoxy)-6-methoxy-quinazolin-7-yloxy]-butyric acid], the IC50 in assay [1] and in assay [2] was 2000 to 5000 nM throughout.

On to `COc1cc2nccc(Oc3ccc(NC(=O)c4ccccc4)cc3)c2cc1OCC[C@H](N)C(=O)O` [Example 36, (S)-2-Amino-4-[4-(4-benzoylamino-phenoxy)-7-methoxy-quinolin-6-yloxy]-butyric acid], for which the results for the IC50 in assay [1] and in assay [2] were less than 2000 nM and 2000 to 5000 nM, respectively.

`COc1cc2c(Oc3ccc(NC(=O)c4ccccc4)cc3)ccnc2cc1OCC[C@H](NC(C)=O)C(=O)O` [Example 43, (S)-2-Acetylamino-4-[4-(4-benzoylamino-phenoxy)-6-methoxy-quinolin-7-yloxy]-butyric acid]: the IC50 in assay [1] and in assay [2] was less than 2000 nM in each case.

`COc1cc2c(Oc3ccc(NC(=O)c4ccc(C(F)(F)F)cc4)cc3)ccnc2cc1OCC[C@H](N)C(=O)OC1CCCC1` [Example 53, (S)-2-Amino-4-{6-methoxy-4-[4-(4-trifluoromethyl-benzoylamino)-phenoxy]-quinolin-7-yloxy}-butyric acid cyclopentyl ester]: the IC50 in assay [2] was less than 2000 nM; in assay [3] it was less than 1000 nM; in assay [4], less than 1000 nM; in assay [5], less than 1000 nM.

`COc1cc2c(Oc3ccc(NC(=O)c4ccc(C(F)(F)F)cc4)cc3)ccnc2cc1OCC[C@H](N)C(=O)O` [Example 54, (S)-2-Amino-4-{6-methoxy-4-[4-(4-trifluoromethyl-benzoylamino)-phenoxy]-quinolin-7-yloxy}-butyric acid]: the IC50 in assay [1] and in assay [2] was less than 2000 nM in each case.

As for `COc1ccc(C(=O)Nc2ccc(Oc3ccnc4cc(OCC[C@H](N)C(=O)OC5CCCC5)c(OC)cc34)cc2)cc1` [Example 57, (S)-2-Amino-4-{6-methoxy-4-[4-(4-methoxy-benzoylamino)-phenoxy]-quinolin-7-yloxy}-butyric acid cyclopentyl ester], the IC50 was 2000 to 5000 nM in assay [2], less than 1000 nM in assay [3], 1000 to 5000 nM in assay [4] and 1000 to 5000 nM in assay [5].

Consider `COc1ccc(C(=O)Nc2ccc(Oc3ccnc4cc(OCC[C@H](N)C(=O)O)c(OC)cc34)cc2)cc1` [Example 58, (S)-2-Amino-4-{6-methoxy-4-[4-(4-methoxy-benzoylamino)-phenoxy]-quinolin-7-yloxy}-butyric acid], for which the IC50 in assay [1] was greater than 5000 nM; in assay [2] it was less than 2000 nM.

On to `COc1cc2c(Oc3ccc(NC(=O)C4CC4)cc3)ccnc2cc1OCC[C@H](N)C(=O)OC1CCCC1` [Example 59, (S)-2-Amino-4-{4-[4-(cyclopropanecarbonyl-amino)-phenoxy]-6-methoxy-quinolin-7-yloxy}-butyric acid cyclopentyl ester], for which the IC50 in assay [2] is greater than 5000 nM; in assay [3], less than 1000 nM; in assay [4], 1000 to 5000 nM; in assay [5], 1000 to 5000 nM.

As for `COc1cc2c(Oc3ccc(NC(=O)C4CC4)cc3)ccnc2cc1OCC[C@H](N)C(=O)O` [Example 60, (S)-2-Amino-4-{4-[4-(cyclopropanecarbonyl-amino)-phenoxy]-6-methoxy-quinolin-7-yloxy}-butyric acid], the IC50 in assay [1] and in assay [2] was greater than 5000 nM throughout.

On to `COc1cc2c(Oc3ccc(NC(=O)c4ccccc4F)cc3)ccnc2cc1OCC[C@H](N)C(=O)O` [Example 62, (S)-2-Amino-4-{4-[4-(2-fluoro-benzoylamino)-phenoxy]-6-methoxy-quinolin-7-yloxy}-butyric acid], for which the IC50 in assay [1] is 2000 to 5000 nM; in assay [2], less than 2000 nM.

As to `COc1cc2c(Oc3ccc(NC(=O)c4ccc(F)cc4)cc3)ccnc2cc1OCC[C@H](N)C(=O)O` [Example 64, (S)-2-Amino-4-{4-[4-(4-fluoro-benzoylamino)-phenoxy]-6-methoxy-quinolin-7-yloxy}-butyric acid], the figures for the IC50 in assay [1] and in assay [2] were 2000 to 5000 nM and less than 2000 nM, respectively.

For `COc1cc2c(Oc3ccc(C(=O)Nc4ccccc4)cc3)ccnc2cc1OCC[C@H](N)C(=O)OC1CCCC1` [Example 77, (S)-2-Amino-4-[6-methoxy-4-(4-phenylcarbamoyl-phenoxy)-quinolin-7-yloxy]-butyric acid cyclopentyl ester], the IC50 was greater than 5000 nM in assay [2], 1000 to 5000 nM in assay [3], greater than 5000 nM in assay [4] and 1000 to 5000 nM in assay [5].

As for `COc1cc2c(Oc3ccc(NC(=O)c4ccccc4)cc3F)ccnc2cc1OCC[C@H](N)C(=O)OC1CCCC1` [Example 128, (S)-2-Amino-4-[4-(4-benzoylamino-2-fluoro-phenoxy)-6-methoxy-quinolin-7-yloxy]-butyric acid cyclopentyl ester], the IC50 is 2000 to 5000 nM in assay [2], less than 1000 nM in assay [3], less than 1000 nM in assay [4] and less than 1000 nM in assay [5].
